Source: patent publication US7880002B2, “Substituted piperazinyl-pyrrolidine compounds useful as chemokine receptor antagonists” (Millennium Pharmaceuticals, Inc., priority 2004, dated 2011)

Biological target: T1, CCR1 (Homo sapiens, UniProt P32246)
T1 construct: a monocytic derived cell line that endogenously expresses CCR1; host or cells: THP-1 cells
T1 sequence (P32246 1-355): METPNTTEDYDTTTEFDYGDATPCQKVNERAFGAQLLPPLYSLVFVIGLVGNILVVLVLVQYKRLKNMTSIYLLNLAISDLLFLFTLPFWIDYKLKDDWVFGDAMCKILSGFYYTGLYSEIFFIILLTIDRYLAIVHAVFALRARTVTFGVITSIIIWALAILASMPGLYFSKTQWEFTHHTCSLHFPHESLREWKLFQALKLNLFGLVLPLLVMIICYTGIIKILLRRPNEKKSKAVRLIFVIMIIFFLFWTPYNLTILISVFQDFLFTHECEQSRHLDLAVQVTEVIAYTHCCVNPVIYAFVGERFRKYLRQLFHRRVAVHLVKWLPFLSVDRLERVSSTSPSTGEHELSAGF
Test: CCR1 inhibition (THP-1 FLIPR assay / THP-1 whole cell radioligand binding assay; the patent does not say which gave the values)
Format: cell-based
Conditions: threshold list, less than 100 nm; compounds of Table 1; read-out: inhibitory activity
Procedure: The primary screening assay is a FLIPR® (Fluorometric Imaging Plate Reader, available from Molecular Devices Corporation, Sunnyvale, Calif.) assay using THP-1 cells (ATCC, Catalog No. TIB 202), a monocytic derived cell line that endogenously expresses CCR1.
The cells were resuspended at 1×10^6 cells/ml in dye loading media (growth media (RPMI+10% FBS (Fetal Bovine serum)+5.5×10^−5M 2-mercaptoethanol)+10 mM HEPES (N-2-hydroxyethylpiperazine-N′-2-ethane-sulfonic acid)+2.5 mM probenecid+fluo-3 (1:250)). The cells were incubated for 1 hour at 37° C. and then washed in FLIPR wash buffer (100 mL 10× HBSS (Hanks Buffered Saline Solution) (w/Ca++/Mg++)+20 mL 1M HEPES+1 g BSA+10 mL 250 mM probenecid+water (to make 1 L)) and plated at 50,000 cells/well in black/clear 384 well plates. The plates were transferred to FLIPR where the ability of different concentrations of compounds to inhibit RANTES induced calcium flux was assessed. Inhibition of the CCR1 response was reflected by a decrease of the fluorescence signal relative to the positive controls (RANTES alone).
THP-1 Whole Cell Radioligand Binding Assay
The cells were washed with PBS (phosphate buffered saline) and resuspended in binding buffer (10 mM HEPES pH 7.2, 1× HBSS (w/Ca^2+, Mg^2+) 0.5% BSA, 0.02% Na-azide) at 4×10^6 cells/ml (for 200, 000 cells/well). Cells were incubated with 0.1 to 0.2 nM [^125I]-labeled MIP-1α with or without unlabeled competitor (MIP-1α) or various concentrations of compounds for 60 minutes at room temperature. The assay was terminated by vacuum filtration through glass fiber filters (GF/B, Packard) which were presoaked in 0.3% polyethyleneimine. The filters were washed with wash buffer (10 mM HEPES, pH 7.2, 1 mM CaCl2, 5 mM MgCl2 0.5M NaCl), dried and the amount of bound radioactivity was determined by scintillation counting.

IC50 [µM]	Compound
< 0.1	O=C(c1ccc(Cl)cc1)N1CCN([C@@H]2CN(c3nc(C(F)(F)F)nc4cnccc34)C[C@H]2O)CC1 (racemic) [Example 137, 4-[4-(4-chlorobenzoyl)piperazin-1-yl]-1-[2-(trifluoromethyl)pyrido[3,4-d]pyrimidin-4-yl]pyrrolidin-3-ol]
< 0.1	O=C(c1ccc(Cl)cc1)N1CCN([C@@H]2CN(c3ncnc4cc(Cl)cnc34)C[C@H]2O)CC1 (racemic) [Example 162, 4-[4-(4-chlorobenzoyl)piperazin-1-yl]-1-(7-chloropyrido[3,2-d]pyrimidin-4-yl)pyrrolidin-3-ol]
< 0.1	O=C(c1ccc(Cl)cc1)N1CCN([C@H]2CN(c3ncnc4cnccc34)C[C@@H]2O)CC1 (racemic) [Example 182, 4-[4-(4-chlorobenzoyl)piperazin-1-yl]-1-pyrido[3,4-d]pyrimidin-4-ylpyrrolidin-3-ol]
< 0.1	COc1cc2c(N3C[C@H](O)[C@@H](N4CCN(C(=O)c5ccc(Cl)cc5)CC4)C3)nc(C(F)(F)F)nc2cn1 (racemic) [Example 183, 4-[4-(4-chlorobenzoyl)piperazin-1-yl]-1-[6-methoxy-2-(trifluoromethyl)pyrido[3,4-d]pyrimidin-4-yl]pyrrolidin-3-ol]
< 0.1	COc1ccc2nc(C(F)(F)F)nc(N3C[C@@H](O)[C@H](N4CCN(C(=O)c5ccc(Cl)cc5)CC4)C3)c2n1 (racemic) [Example 200, 4-[4-(4-chlorobenzoyl)piperazin-1-yl]-1-[6-methoxy-2-(trifluoromethyl)pyrido[3,2-d]pyrimidin-4-yl]pyrrolidin-3-ol]
< 0.1	O=C(c1ccc(Cl)cc1)N1CCN([C@@H]2CN(c3ncnc4cc(F)c(F)cc34)C[C@H]2O)CC1 (stereo in doubt) [Example 102, 4-[4-(4-chlorobenzoyl)piperazin-1-yl]-1-(6,7-difluoroquinazolin-4-yl)pyrrolidin-3-ol]
< 0.1	O=C(c1ccc(Cl)cc1)N1CCN([C@@H]2CN(c3nc(Nc4ccc(Cl)cc4)cc(C(F)(F)F)n3)C[C@H]2O)CC1 (stereo in doubt) [Example 106, 4-[4-(4-chlorobenzoyl)piperazin-1-yl]-1-[4-[(4-chlorophenyl)amino]-6-(trifluoromethyl)pyrimidin-2-yl]pyrrolidin-3-ol]
< 0.1	Cc1cc(C(F)(F)F)nc(N2C[C@@H](O)[C@H](N3CCN(C(=O)c4ccc(Cl)cc4)CC3)C2)n1 (stereo in doubt) [Example 107, 4-[4-(4-chlorobenzoyl)piperazin-1-yl]-1-[4-methyl-6-(trifluoromethyl)pyrimidin-2-yl]pyrrolidin-3-ol]
< 0.1	Cc1cc(C(F)(F)F)nc(N2C[C@@H](O)[C@H](N3CCN(Cc4ccc(Cl)cc4)CC3)C2)n1 (stereo in doubt) [Example 108, 4-[4-(4-chlorobenzyl)piperazin-1-yl]-1-[4-methyl-6-(trifluoromethyl)pyrimidin-2-yl]pyrrolidin-3-ol]
< 0.1	O=C(c1ccc(Cl)cc1)N1CCN([C@@H]2CN(c3nc(C(F)(F)F)cc(C(F)(F)F)n3)C[C@H]2O)CC1 (stereo in doubt) [Example 109, 1-[4,6-bis(trifluoromethyl)pyrimidin-2-yl]-4-[4-(4-chlorobenzoyl)piperazin-1-yl]pyrrolidin-3-ol]
< 0.1	O=C(c1ccc(Cl)cc1)N1CCN([C@@H]2CN(c3nc(C(F)(F)F)nc4cc(C(F)(F)F)ccc34)C[C@H]2O)CC1 (stereo in doubt) [Example 111, 1-[2,7-bis(trifluoromethyl)quinazolin-4-yl]-4-[4-(4-chlorobenzoyl)piperazin-1-yl]pyrrolidin-3-ol]
< 0.1	O=C(c1ccc(Cl)cc1)N1CCN([C@@H]2CN(c3cc(C(F)(F)F)cc(C(F)(F)F)c3)C[C@H]2O)CC1 (stereo in doubt) [Example 113, 1-[3,5-bis(trifluoromethyl)phenyl]-4-[4-(4-chlorobenzoyl)piperazin-1-yl]pyrrolidin-3-ol]
< 0.1	O[C@@H]1CN(c2ncnc3cc(Cl)ccc23)C[C@H]1N1CCN(Cc2ccc(F)cc2)CC1 (stereo in doubt) [Example 115, 1-(7-chloroquinazolin-4-yl)-4-[4-(4-fluorobenzyl)piperazin-1-yl]pyrrolidin-3-ol]

Second part, the molecule before the results:

Compound	IC50 [µM]
O=C(c1ccc(Cl)cc1)N1CCN([C@@H]2CN(c3ccnc4cc(Cl)ccc34)C[C@H]2O)CC1 (stereo in doubt) [Example 1, 4-[4-(4-chlorobenzoyl)piperazin-1-yl]-1-(7-chloroquinolin-4-yl)pyrrolidin-3-ol]	< 0.1
O=C(c1ccc(Cl)cc1)N1CCN([C@@H]2CN(c3nccc(C(F)(F)F)n3)C[C@H]2O)CC1 (stereo in doubt) [Example 3, 4-[4-(4-chlorobenzoyl)piperazin-1-yl]-1-[4-(trifluoromethyl)pyrimidin-2-yl]pyrrolidin-3-ol]	< 0.1
O=C(c1ccc(Cl)cc1)N1CCN([C@@H]2CN(c3ncnc4cc(Cl)ccc34)C[C@H]2O)CC1 (stereo in doubt) [Example 23, 4-[4-(4-chlorobenzoyl)piperazin-1-yl]-1-(7-chloroquinazolin-4-yl)pyrrolidin-3-ol]	< 0.1
O=C(c1ccc(Cl)cc1)N1CCN([C@H]2CN(c3cc(C(F)(F)F)nc4c(C(F)(F)F)cccc34)C[C@@H]2O)CC1 (stereo in doubt) [Example 26, 1-[2,8-bis(trifluoromethyl)quinolin-4-yl]-4-[4-(4-chlorobenzoyl)piperazin-1-yl]pyrrolidin-3-ol]	< 0.1
O[C@H]1CN(c2ncnc3cc(Cl)ccc23)C[C@@H]1N1CCC(Oc2ccc(Cl)cc2)CC1 (stereo in doubt) [Example 80, 4-[4-(4-chlorophenoxy)piperidin-1-yl]-1-(7-chloroquinazolin-4-yl)pyrrolidin-3-ol]	< 0.1
O=C(c1ccc(Cl)cc1)N1CCN([C@@H]2CN(c3ncnc4ccc(Cl)cc34)C[C@H]2O)CC1 (stereo in doubt) [Example 81, 4-[4-(4-chlorobenzoyl)piperazin-1-yl]-1-(6-chloroquinazolin-4-yl)pyrrolidin-3-ol]	< 0.1
O=C(c1ccc(Cl)cc1)N1CCN([C@H]2CN(c3ccc4cccc(Cl)c4n3)C[C@@H]2O)CC1 (stereo in doubt) [Example 85, 4-[4-(4-chlorobenzoyl)piperazin-1-yl]-1-(8-chloroquinolin-2-yl)pyrrolidin-3-ol]	< 0.1
O=C(c1ccc(Cl)cc1)N1CCN([C@@H]2CN(c3ncnc4cc(F)ccc34)C[C@H]2O)CC1 (stereo in doubt) [Example 86, 4-[4-(4-chlorobenzoyl)piperazin-1-yl]-1-(7-fluoroquinazolin-4-yl)pyrrolidin-3-ol]	< 0.1
O[C@H]1CN(c2ncnc3cc(Cl)ccc23)C[C@@H]1N1CCN(Cc2ccc(Cl)cc2)CC1 (stereo in doubt) [Example 87, 4-[4-(4-chlorobenzyl)piperazin-1-yl]-1-(7-chloroquinazolin-4-yl)pyrrolidin-3-ol]	< 0.1
O=C(c1ccc(Cl)cc1)N1CCN([C@@H]2CN(c3ncnc4cc(C(F)(F)F)ccc34)C[C@H]2O)CC1 (stereo in doubt) [Example 93, 4-[4-(4-chlorobenzoyl)piperazin-1-yl]-1-[7-(trifluoromethyl)quinazolin-4-yl]pyrrolidin-3-ol]	< 0.1
O=C(c1ccc(Cl)cc1)N1CCN([C@@H]2CN(c3nc(C(F)(F)F)nc4ccccc34)C[C@H]2O)CC1 (stereo in doubt) [Example 94, 4-[4-(4-chlorobenzoyl)piperazin-1-yl]-1-[2-(trifluoromethyl)quinazolin-4-yl]pyrrolidin-3-ol]	< 0.1
O[C@H]1CN(c2nc(C(F)(F)F)nc3ccccc23)C[C@@H]1N1CCN(Cc2ccc(Cl)cc2)CC1 (stereo in doubt) [Example 95, 4-[4-(4-chlorobenzyl)piperazin-1-yl]-1-[2-(trifluoromethyl)quinazolin-4-yl]pyrrolidin-3-ol]	< 0.1
O[C@H]1CN(c2ncnc3cc(C(F)(F)F)ccc23)C[C@@H]1N1CCN(Cc2ccc(Cl)cc2)CC1 (stereo in doubt) [Example 97, 4-[4-(4-chlorobenzyl)piperazin-1-yl]-1-[7-(trifluoromethyl)quinazolin-4-yl]pyrrolidin-3-ol]	< 0.1
